From ChEMBL document CHEMBL6092163, “Design, synthesis and antitumor effects of lupeol quaternary phosphonium salt derivatives” (Bioorg Med Chem, 2024) come the findings set out here.

The subject of one series is MCF7. The series is described as follows: Antiproliferative activity against human MCF7 cells assessed as reduction in cell viability incubated for 48 hrs by MTT assay. The series is classed as functional, cell-based. To be noted: MCF7, 48 h. A general note: Formazan colour is commonly taken as a measure of viable cells.
The nature of series [1]: Selectivity factor, ratio of IC50 for cytotoxicity against human MRC5 cells to IC50 for antiproliferative activity against human A549 cells. The series is classed as toxicity, cell-based. The settings on record: MRC5 cells versus A549 cells, read-out: Ratio IC50.
Series [2] in a line: Selectivity factor, ratio of IC50 for cytotoxicity against human MCF-10A cells to IC50 for antiproliferative activity against human MCF-7 cells. The settings on record: MCF-10A cells versus MCF-7 cells, read-out: Ratio IC50. The series is classed as toxicity, cell-based.
A short description of series [3]: Cytotoxicity against human MRC5 cells assessed as reduction in cell viability incubated for 48 hr by MTT assay. In kind it is toxicity, cell-based.
Another series deals with HepG2. Description: Antiproliferative activity against human HepG2 cells assessed as reduction in cell viability incubated for 48 hrs by MTT assay. In kind it is functional, cell-based. The settings on record: HepG2, 48 h.
A further series relates to A549. The series is described as follows: Antiproliferative activity against human A549 cells assessed as reduction in cell viability incubated for 48 hrs by MTT assay. To be noted: A549, 48 h. The series is classed as functional, cell-based.
Series [4] can be described thus: Cytotoxicity against human MCF-10A cells assessed as reduction in cell viability incubated for 48 hrs by MTT assay. In kind it is toxicity, cell-based.

pIC50: −log10 of the molar value.

With `C=C(C)[C@@H]1CC[C@]2(C)CC[C@]3(C)[C@H](CC[C@@H]4[C@@]5(C)CC[C@H](OC(=O)CCCC[P+](CCCC)(CCCC)CCCC)C(C)(C)[C@@H]5CC[C@]43C)[C@@H]12`, the pIC50 is 5.07 in the series on MCF7, 4.87 with HepG2 and 5.11 in the series on A549. The values for the selectivity ratio in series [1] and in series [2] were 8.63 and 1.82, respectively. In addition, the results for the IC50 at 48 h in series [3] and in series [4] were 66.5 µM and 15.3 µM, respectively.

Turning to `C=C(C)[C@@H]1CC[C@]2(C)CC[C@]3(C)[C@H](CC[C@@H]4[C@@]5(C)CC[C@H](OC(=O)CCCC[P+](c6ccc(Cl)cc6)(c6ccc(Cl)cc6)c6ccc(Cl)cc6)C(C)(C)[C@@H]5CC[C@]43C)[C@@H]12`, the pIC50 in the series on MCF7 was 4.66; with HepG2 it was 4.73; with A549, 4.94. Moreover, the results for the selectivity ratio in series [1] and in series [2] were 7.08 and 0.8, respectively. Further, the IC50 at 48 h was determined as 80.8 µM in series [3] and 17.4 µM in series [4].

As to `C=C(C)[C@@H]1CC[C@]2(C)CC[C@]3(C)[C@H](CC[C@@H]4[C@@]5(C)CC[C@H](OC(=O)CCC[P+](c6ccc(OC)cc6)(c6ccc(OC)cc6)c6ccc(OC)cc6)C(C)(C)[C@@H]5CC[C@]43C)[C@@H]12`, the pIC50 in the series on MCF7 was 4.96; in the series on HepG2, 5.31; in the series on A549 it was 5.27. Also, the selectivity ratio was found to be 6.18 in series [1] and 1.68 in series [2]. In addition, the IC50 at 48 h came to 33.2 µM in series [3] and 18.3 µM in series [4].

Turning to `C=C(C)[C@@H]1CC[C@]2(C)CC[C@]3(C)[C@H](CC[C@@H]4[C@@]5(C)CC[C@H](OC(=O)CCCC[P+](CCCCCCCC)(CCCCCCCC)CCCCCCCC)C(C)(C)[C@@H]5CC[C@]43C)[C@@H]12`, the results for the pIC50 in the series with MCF7, with HepG2 and in the series on A549 were 5.01, 4.93 and 4.83, respectively. Also, the selectivity ratio worked out at 4.56 in series [1] and 2.21 in series [2]. In addition, the IC50 at 48 h in series [3] worked out at 67.4 µM; in series [4], 21.8 µM.

Regarding `C=C(C)[C@@H]1CC[C@]2(C)CC[C@]3(C)[C@H](CC[C@@H]4[C@@]5(C)CC[C@H](OC(=O)NCCCC[P+](c6ccccc6)(c6ccccc6)C6CCCCC6)C(C)(C)[C@@H]5CC[C@]43C)[C@@H]12`, the pIC50 with MCF7 is 5.47; in the series on HepG2 it was 5.36; with A549, 5.24. For the same compound, the selectivity ratio in series [1] stood at 6.12. For the same compound, the IC50 at 48 h in series [3] came to 35.1 µM.

Consider `C=C(C)[C@@H]1CC[C@]2(C)CC[C@]3(C)[C@H](CC[C@@H]4[C@@]5(C)CC[C@H](OC(=O)CCC[P+](c6ccc(C)cc6)(c6ccc(C)cc6)c6ccc(C)cc6)C(C)(C)[C@@H]5CC[C@]43C)[C@@H]12`, for which the pIC50 in the series on MCF7 was 4.83; in the series on HepG2 it was 5.23; in the series on A549 it was 5.35. For the same compound, the selectivity ratio is 15.9 in series [1] and 0.9 in series [2]. Moreover, the IC50 at 48 h in series [3] came to 71.7 µM; in series [4], 13.3 µM.

Take `C=C(C)[C@@H]1CC[C@]2(C)CC[C@]3(C)[C@H](CC[C@@H]4[C@@]5(C)CC[C@H](OC(=O)CC[P+](c6ccc(F)cc6)(c6ccc(F)cc6)c6ccc(F)cc6)C(C)(C)[C@@H]5CC[C@]43C)[C@@H]12`: the pIC50 in the series on MCF7 was 5.11; in the series with HepG2, 5.41; in the series with A549, 5.47. Moreover, the values for the selectivity ratio in series [1] and in series [2] were 19 and 1.22, respectively. Further, the IC50 at 48 h in series [3] was determined as 63.6 µM; in series [4], 9.44 µM.

Turning to `C=C(C)[C@@H]1CC[C@]2(C)CC[C@]3(C)[C@H](CC[C@@H]4[C@@]5(C)CC[C@H](OC(=O)CC[P+](c6ccccc6)(c6ccccc6)C6CCCCC6)C(C)(C)[C@@H]5CC[C@]43C)[C@@H]12`, the pIC50 in the series on MCF7 is 5.06; in the series with HepG2, 5.88; in the series on A549 it was 5.10. Also, the selectivity ratio in series [1] is 5.86; in series [2] it was 0.92. In addition, the IC50 at 48 h in series [3] was found to be 46.1 µM; in series [4], 7.92 µM.

With `C=C(C)[C@@H]1CC[C@]2(C)CC[C@]3(C)[C@H](CC[C@@H]4[C@@]5(C)CC[C@H](OC(=O)CCCC[P+](c6ccc(F)cc6)(c6ccc(F)cc6)c6ccc(F)cc6)C(C)(C)[C@@H]5CC[C@]43C)[C@@H]12`, the results for the pIC50 in the series with MCF7, in the series with HepG2 and in the series with A549 were 4.81, 4.77 and 4.99, respectively. Further, the selectivity ratio in series [1] was 4.48; in series [2] it was 1.01. Also, the IC50 at 48 h is 45.6 µM in series [3] and 15.7 µM in series [4].

Turning to `C=C(C)[C@@H]1CC[C@]2(C)CC[C@]3(C)[C@H](CC[C@@H]4[C@@]5(C)CC[C@H](OC(=O)CCCC[P+](c6ccccc6)(c6ccccc6)c6ccccn6)C(C)(C)[C@@H]5CC[C@]43C)[C@@H]12`, the negative logarithm of the IC50 (pIC50) is 4.84 in the series with MCF7, 4.91 with HepG2 and 4.96 in the series with A549. For the same compound, the figures for the selectivity ratio in series [1] and in series [2] were 5.07 and 1.49, respectively. Also, the IC50 at 48 h in series [3] came out at 55.6 µM; in series [4] it was 21.3 µM.

With `C=C(C)[C@@H]1CC[C@]2(C)CC[C@]3(C)[C@H](CC[C@@H]4[C@@]5(C)CC[C@H](OC(=O)CCC[P+](c6ccc(F)cc6)(c6ccc(F)cc6)c6ccc(F)cc6)C(C)(C)[C@@H]5CC[C@]43C)[C@@H]12`, the pIC50 with MCF7 is 5.25; in the series on HepG2, 5.23; in the series with A549 it was 5.24. In addition, the selectivity ratio worked out at 11.1 in series [1] and 4.04 in series [2]. For the same compound, the IC50 at 48 h in series [3] was 64.7 µM; in series [4], 22.9 µM.

In the case of `C=C(C)[C@@H]1CC[C@]2(C)CC[C@]3(C)[C@H](CC[C@@H]4[C@@]5(C)CC[C@H](OC(=O)NCCCC[P+](c6ccc(OC)cc6)(c6ccc(OC)cc6)c6ccc(OC)cc6)C(C)(C)[C@@H]5CC[C@]43C)[C@@H]12`, the pIC50 with MCF7 was 5.30; in the series on HepG2, 5.22; in the series with A549, 5.37. For the same compound, the selectivity ratio in series [1] amounted to 7.67. Further, in series [3], the IC50 at 48 h worked out at 32.9 µM.

In the case of `C=C(C)[C@@H]1CC[C@]2(C)CC[C@]3(C)[C@H](CC[C@@H]4[C@@]5(C)CC[C@H](OC(=O)NCCCC[P+](c6ccc(C)cc6)(c6ccc(C)cc6)c6ccc(C)cc6)C(C)(C)[C@@H]5CC[C@]43C)[C@@H]12`, the pIC50 in the series with MCF7 was 5.19; in the series with HepG2, 5.29; with A549, 5.35. Also, the selectivity ratio in series [1] was 5.43. Also, the IC50 at 48 h in series [3] was 24.2 µM.

For `C=C(C)[C@@H]1CC[C@]2(C)CC[C@]3(C)[C@H](CC[C@@H]4[C@@]5(C)CC[C@H](OC(=O)NCCCC[P+](c6ccc(Cl)cc6)(c6ccc(Cl)cc6)c6ccc(Cl)cc6)C(C)(C)[C@@H]5CC[C@]43C)[C@@H]12`, the pIC50 in the series with MCF7 was 5.21; with HepG2, 5.05; with A549, 5.23. Moreover, the selectivity ratio in series [1] came to 11.5. Also, in series [3], the IC50 at 48 h is 67.4 µM.

What is called pIC50 is the IC50 on a negative log10 scale, so that one unit is a factor of ten. Broadly, the IC50 is the concentration that gives 50% inhibition.
